tested on: Haemaphysalis longicornis; assay: Test Example 10: Haemaphysalis longicornis, treated filter paper pouch; assay type: in vivo; conditions: 0.5 mg compound on filter paper 5×10 cm; non-blood sucking nymphal ticks; after 2 days
Method: In 1 mL of acetone, 0.5 mg of any one of the present compounds 1 to 48 was dissolved, and the solution was spread uniformly on one side of a filter paper (TOYO No. 2; 5×10 cm). After dried, the filter paper was folded into two, and the sides were clipped to make a pouch. Into the pouch, tested ticks (Haemaphysalis longicornis, non-blood sucking nymphal ticks, 10 ticks in a group) were placed. The pouch was clipped and sealed. After 2 days, the number of dead ticks was counted.

Row | Compound | death rate [%]
1 | COc1ccc(N=C(Oc2ccccc2)C(C)=COc2ccccc2OC)cc1 [Compound 245, phenyl N-(4-methoxyphenyl)-3-(2-methoxyphenyloxy)-2-methyl-2-propenimidate] | 100
2 | CC(=COc1ccc(C)cc1)C(=Nc1ccc(C)cc1)Oc1cccc(C)c1 [Compound 210, 3-methylphenyl 2-methyl-N-(4-methylphenyl)-3-(4-methylphenyloxy)-2-propenimidate] | 100
3 | CC(=COc1ccc(C(C)C)cc1)C(=Nc1ccccc1)Oc1ccccc1 [Compound 230, phenyl 3-(4-isopropylphenyloxy)-2-methyl-N-phenyl-2-propenimidate] | 100
4 | CCc1ccc(OC=C(C)C(=Nc2ccccc2)Oc2ccccc2)cc1 [Compound 229, phenyl 3-(4-ethylphenyloxy)-2-methyl-N-phenyl-2-propenimidate] | 100
5 | COc1ccccc1OC=C(C)C(=Nc1ccccc1)Oc1cc(C)cc(C)c1 [Compound 238, 3,5-dimethylphenyl 3-(2-methoxyphenyloxy)-2-methyl-N-phenyl-2-propenimidate] | 100
6 | COc1ccc(OC(=Nc2ccccc2)C(C)=COc2ccc(C)cc2)cc1 [Compound 205, 4-methoxyphenyl 2-methyl-3-(4-methylphenyloxy)-N-phenyl-2-propenimidate] | 100
7 | COc1ccc(N=C(Oc2cccc(C)c2)C(C)=COc2cccc(C)c2)cc1 [Compound 189, 3-methylphenyl N-(4-methoxyphenyl)-2-methyl-3-(3-methylphenyloxy)-2-propenimidate] | 100
8 | CC(=COc1cccc(C)c1)C(=Nc1ccccc1)Oc1cc(C)cc(C)c1 [Compound 182, 3,5-dimethylphenyl 2-methyl-3-(3-methylphenyloxy)-N-phenyl-2-propenimidate] | 100
9 | CCOc1cccc(OC(=Nc2ccccc2)C(C)=COc2ccccc2OC)c1 [Compound 237, 3-ethoxyphenyl 3-(2-methoxyphenyloxy)-2-methyl-N-phenyl-2-propenimidate] | 100
10 | CCc1cccc(OC(=Nc2ccccc2)C(C)=COc2cccc(C)c2)c1 [Compound 177, 3-ethylphenyl 2-methyl-3-(3-methylphenyloxy)-N-phenyl-2-propenimidate] | 100
11 | CC(=COc1cccc(C)c1)C(=Nc1ccc(C)cc1)Oc1cccc(C)c1 [Compound 184, 3-methylphenyl 2-methyl-N-(4-methylphenyl)-3-(3-methylphenyloxy)-2-propenimidate] | 100
12 | CC(=COc1ccc(C)cc1)C(=Nc1ccccc1)Oc1cccc(F)c1 [Compound 198, 3-fluorophenyl 2-methyl-3-(4-methylphenyloxy)-N-phenyl-2-propenimidate] | 100
13 | COc1ccc(OC=C(C)C(=Nc2ccc(C)cc2)Oc2ccc(C)cc2)cc1 [Compound 271, 4-methylphenyl 3-(4-methoxyphenyloxy)-2-methyl-N-(4-methylphenyl)-2-propenimidate] | 100
14 | COc1ccc(N=C(Oc2cccc(C)c2)C(C)=COc2ccc(C)cc2)cc1 [Compound 225, 3-methylphenyl N-(4-methoxyphenyl)-2-methyl-3-(4-methylphenyloxy)-2-propenimidate] | 100
15 | COc1cccc(OC=C(C)C(=Nc2ccc(C)cc2)Oc2cccc(C)c2)c1 [Compound 261, 3-methylphenyl 3-(3-methoxyphenyloxy)-2-methyl-N-(4-methylphenyl)-2-propenimidate] | 100
16 | CC(=COc1ccc(C)cc1)C(=Nc1ccc(C)cc1)Oc1cccc(F)c1 [Compound 214, 3-fluorophenyl 2-methyl-N-(4-methylphenyl)-3-(4-methylphenyloxy)-2-propenimidate] | 100
17 | COc1ccc(OC=C(C)C(=Nc2ccc(C)cc2)Oc2cc(C)cc(C)c2)cc1 [Compound 275, 3,5-dimethylphenyl 3-(4-methoxyphenyloxy)-2-methyl-N-(4-methylphenyl)-2-propenimidate] | 100
18 | COc1ccc(OC=C(C)C(=Nc2ccccc2)Oc2cccc(OC)c2)cc1 [Compound 266, 3-methoxyphenyl 3-(4-methoxyphenyloxy)-2-methyl-N-phenyl-2-propenimidate] | 100
19 | COc1cccc(OC(=Nc2ccc(C)cc2)C(C)=COc2ccc(C)cc2)c1 [Compound 220, 3-methoxyphenyl 2-methyl-N-(4-methylphenyl)-3-(4-methylphenyloxy)-2-propenimidate] | 100
20 | CC(=COc1ccc(C)c(C)c1)C(=Nc1ccccc1)Oc1ccccc1 [Compound 292, phenyl 3-(3,4-dimethylphenyloxy)-2-methyl-N-phenyl-2-propenimidate] | 100

Source: patent US8278473B2, “Alpha, beta-unsaturated imidate compound and pesticidal composition containing the same” (Sumitomo Chemical Company, Limited, priority 2007, dated 2012)
